According to patent US5188642A, “Glyphosate-resistant plants” (priority 1990, dated 1993):

Assays:
[1] = test system: leaf tissue from transgenic shoots of B. napus; assay: Oil seed rape leaf tissue tolerance test on medium with glyphosate; format: cell-based, Brassica napus; settings: 0.5 mM glyphosate
Description: The four terminal intervals from B. napus plants (growth chamber grown in soil) are surface sterilized in sodium hypochlorite and cut into 5 mm sections. The upper surface of each piece is inoculated with an overnight liquid culture of A. tumefaciens containing the above described transformation vector and helper plasmid pTiT37-SE and incubated for 2 to 3 days on nurse culture plates containing 1/10 MS medium with 1 mg/l BA. The explants are then transferred to MS medium containing 1 mg/l BA, 500 mg/l carbenicillin and 100 mg/l kanamycin. After 3 to 6 weeks, leaf tissue from transgenic shoots that have developed is transferred to the same medium but with 0.5 mM glyphosate instead of the kanamycin to test for tolerance.
Control tissue is prepared using A. tumefaciens cells containing helper plasmid pTiT37-SE and vector pMON200.

[2] = test system: petunia plants; assay: Plant response to glyphosate spraying (petunia plants, track sprayer); format: in vivo; settings: isopropylamine salt with ionic surfactant
Description: Four individual representative transgenic seedlings were selected, grown and tested in the testing procedure described below, along with four individual non-transformed (wild-type) petunia seedlings.
The plants were grown in a growth medium in a growth chamber at 26° C. with 12 hours of light per day. The plants were fertilized weekly with a soluble fertilizer and watered as needed. The plants were sprayed at a uniform and reproducible delivery rate herbicide by use of an automated track sprayer.
The glyphosate solution used was measured as pounds of glyphosate acid equivalents per acre, mixed as the glyphosate isopropylamine salt, with an ionic surfactant.
Four individual wild-type (non-transformed) petunia plants were selected for use as control plants. Four individual transformed plants containing the pMON546 vector were selected by kanamycin resistance as described in Horsch et al 1985.
The control plants and the transformed plants were sprayed with the isopropylamine salt of glyphosate at the application level listed in Table 2 below; the experimental results obtained are also summarized in Table 2.

[3] = test system: transgenic canola lines; assay: Glyphosate spray test, reproductive scores of transgenic canola (Example 20); format: in vivo, Brassica napus; settings: 0.28 Kg/ha, 28 days after spraying; lines with A. thaliana meristematic promoter (pMON992) versus enhanced CaMV35S promoter only (pMON987); FIG. 11
Description: The transgenic, differentiated plants obtained containing the variant EPSP synthase gene as described above were analyzed for resistance to glyphosate. The transgenic plants containing the Arabidopsis EPSP synthase gene (as described) directed by the Arabidopsis thaliana promoter as also described above contained pMON992 while those plants containing the Arabidopsis EPSP synthase gene driven only by the enhanced CaMV35S promoter contained pMON987. These transgenic plants were planted and the seed from the R° plants harvested, threshed and dried before planting for a glyphosate spray test. The progeny were planted in 4-inch square pots of Metro 350 and three types of slow release fertilizers. A goal of twenty seedlings from each R° plant is desirable for testing. Germination frequency is usually high but overplanting ensures that twenty seedlings are present. The plants were thinned down by selecting the twenty most vigorous and erect seedlings seven to ten days after planting. A negative control (non-transformed, "Westar" variety) was planted at the same time to maintain quality and display the results. The plants were maintained and grown in a greenhouse environment. A sixteen-hour photoperiod and a temperature of 21° C. (day) and 15° C. (night) was maintained. Water soluble Peters Pete Lite fertilizer with an analysis of 20-19-18 was applied once per week or as needed. […]

[4] = test system: transgenic canola lines; assay: Glyphosate spray test, reproductive scores of transgenic canola (Example 21); format: in vivo
Text: Transgenic plants containing the Arabidopsis EPSP synthase gene containing a single glycine to alamine mutation at […] 101 driven by either the FMV promoter or the CaMVe35S promoter were obtained and analyzed for resistance to glyphosate. The transgenic plants containing the Arabidopsis EPSP synthase gene (as described above) directed by the FMV promoter contained pMON996, FIG. 12 and FIG. 13, while those plants containing the enhanced CaMVe35S promoter contained pMON899. These transgenic plants were planted and the seed from the Ro plants harvested, threshed and dried before planting for a glyphosate spray test. The progeny were planted in 4-inch square pots of Metro 350 and three types of slow release fertilizers. A goal of twenty seedlings from each Ro plant is desirable for testing. Germination frequency is usually high but overplanting ensures that twenty seedlings are present. The plants were thinned down by selecting the twenty most vigorous and erect seedlings seven to ten days after planting. A negative control (non-transformed, "Westar" variety) was planted at the same time to maintain quality and display the results. The plants were maintained and grown in a greenhouse environment. A sixteen-hour photoperiod and a temperature of 21° C. (day) and 15° C. (night) was maintained. […]

O=C(O)CNCP(=O)(O)O [glyphosate, N-phosphonomethylglycine]
tissue growth ([1]; transformed (pMON200) and non-transformed controls): are inhibited | tissue growth ([1]; transgenic tissue that expresses EPSPS): are able to grow in the presence of glyphosate | Visual Appearance ([2]; Chimeric EPSPS transformants (pMON546), 0.8 #/acre acid equivalent): healthy and viable | Visual Appearance ([2]; Control (wild-type) petunia plants, 0.4 #/acre acid equivalent): killed | reproductive scores (scale 0-10) [3]: higher reproductive scores | reproductive scores (scale 0-10) ([4]; 0.28 Kg/ha, 28 days after spraying, three of the seven lines with FMV promoter (pMON996) versus CaMVe35S lines (pMON899), FIG. 14): better than any of the scores from lines containing the CaMVe35S promoter (pMON899) | level of glyphosate tolerance ([4]; transgenic lines containing pMON899 (CaMVe35S promoter) used in FIG. 14): highest levels of glyphosate tolerance among 150 lines previously tested
